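These data come from cells grown in 96-well plates and exposed to compound for 48 hours at five concentrations. GI50 = concentration required for 50% inhibition of growth. TGI is the concentration that stops growth completely.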

Common to all, as to test: NCI tumour cell line growth inhibition, 48 h
Test [1] deals with 786-0 renal.
Test [2] concerns A549 NSCLC.
The test system of test [3] is HCC-2998 colon.
The test system of test [4] is HOP-92 NSCLC.
Test [5] concerns KM12 colon.
Test [6] relates to NCI-H460 lung.
Test [7] has as its system OVCAR-8 ovarian.
Test [8] concerns RPMI-8226 leukemia.
The subject of test [9] is UACC-62 melanoma.
Test [10] has as its system UO-31 renal.

For the compound `CNS(=O)(=O)NN(C)S(=O)(=O)c1ccc(C)cc1`, the TGI in test [1], in [2], in [3], in test [4], in test [5] and in test [6] was over 100 µM throughout. In addition, the TGI in [7], in test [8], in test [9] and in test [10] was over 100 µM throughout.
In the case of `COC(=O)C1(C)CCc2c(ccc3ccccc23)C1=O` (stereo not drawn), the TGI in [1] is over 100 µM; in test [2] it was over 100 µM; in test [3] it was over 100 µM; in test [4], over 100 µM; in test [5], 70.4 µM; in test [6], over 100 µM. For the same compound, the TGI was over 100 µM in test [7], 60.6 µM in test [8], 98.1 µM in test [9] and over 100 µM in test [10].
Consider `CCOC(=O)C12CN(C34CC5CC(CC(C5)C3)C4)CC(C(=O)OCC)(C1=O)C(c1ccccc1)OC2c1ccccc1` (stereo not drawn), for which the TGI is over 100 µM in [1]; over 100 µM in test [2]; over 100 µM in [3]; 9.73 µM in test [4]; over 100 µM in test [5]; over 100 µM in [6]. Besides, the TGI in [7], in [8], in [9] and in test [10] was over 100 µM each time.
For `NCCCNCCCNc1nc2ccccc2c2[nH]c3ccccc3c12`, the GI50 was 0.0975 µM in [1]; 0.0509 µM in [2]; 0.109 µM in test [3]; 0.173 µM in test [4]; 0.684 µM in [5]; 0.0399 µM in test [6]. Besides, the GI50 in test [7] was 0.0346 µM; in [8] it was 0.343 µM; in [9], 0.327 µM; in test [10], 0.309 µM. In addition, the TGI amounted to 1.56 µM in test [1]; 4.05 µM in test [2]; 0.733 µM in test [3]; 0.747 µM in test [4]; 3.93 µM in test [5]; 1.74 µM in test [6]. For the same compound, the TGI came out at 4.3 µM in [7], 3.51 µM in test [8], 1.73 µM in test [9] and 3.17 µM in test [10].
With `C=C(CNCCc1ccc(O)cc1)[C@@H]1CC[C@]2(CO)CC[C@]3(C)[C@H](CC[C@@H]4[C@@]5(C)CCC(NCCO)C(C)(C)[C@@H]5CC[C@]43C)[C@@H]12` (stereo partly drawn), the GI50 in [1] was 1.25 µM; in test [2], 1.7 µM; in test [3], 1.57 µM; in [4], 1.09 µM; in [5], 1.66 µM; in test [6] it was 1.75 µM. Further, the GI50 in test [7] is 1.79 µM; in test [8], 1.43 µM; in test [9], 1.79 µM; in test [10], 1.47 µM. Moreover, the TGI in test [1] stood at 2.58 µM; in test [2], 3.12 µM; in test [3] it was 3.21 µM; in test [4] it was 2.41 µM; in test [5] it was 3.16 µM; in test [6] it was 3.29 µM. For the same compound, the TGI is 3.22 µM in [7], 4 µM in test [8], 3.3 µM in test [9] and 2.86 µM in test [10].
For `CC1=C(C(=O)Nc2cc(F)c(F)cc2F)C(c2cccc([N+](=O)[O-])c2)C(C(=O)Nc2ccccc2C(F)(F)F)=C(C)N1` (stereo not drawn), the TGI is 40.3 µM in test [1]; over 100 µM in test [2]; 36.5 µM in [3]; 32.3 µM in test [4]; 47.4 µM in test [5]; 43.6 µM in [6]. Moreover, the TGI came to 77.7 µM in [7], 37.4 µM in [8] and 42 µM in test [10].
In the case of `Clc1ccc(C2=NN(c3ccccc3)C3c4cc(Br)ccc4OCC23)cc1` (stereo not drawn), the TGI in [1], in [2], in test [3], in [4], in test [5] and in [6] was over 100 µM throughout. Also, the TGI in test [7], in test [8] and in test [10] was over 100 µM each time.
Take `Fc1cccc(C=NC23CC4CC(CC(C4)C2)C3)c1`: the TGI in test [1], in test [3], in test [4], in test [5], in test [6] and in test [7] was over 100 µM throughout. Besides, the TGI in test [8], in test [9] and in [10] was over 100 µM throughout.
Consider `Cn1c(=O)c2c(nc3n2C(CCl)CO3)n(C)c1=O` (stereo not drawn), for which the TGI in [1], in test [3], in [4], in test [5], in [6] and in test [7] was over 100 µM each time. For the same compound, the TGI in [8], in [9] and in test [10] was over 100 µM in each case.
In the case of `O=C1/C(=C/c2ccccc2Cl)COc2ccccc21`, the TGI in test [1] was 28.5 µM; in test [2] it was 55.8 µM; in test [3], 35.9 µM; in [4] it was 29.4 µM; in test [5] it was 34.9 µM; in test [6], 43.6 µM. The TGI was determined as 33.4 µM in [7], 22 µM in [8] and 28.3 µM in [10].
For the compound `COC1C2c3ccccc3C(C#N)(Cc3ccc4c(c32)OCO4)N1C(=O)c1ccccc1` (stereo not drawn), the TGI in test [1], in test [3], in test [4], in test [5], in [6] and in test [7] was over 100 µM each time. Besides, the TGI in [8], in [9] and in [10] was over 100 µM throughout.
Regarding `Cc1cc2c(C)nn(Cc3ccc(Cl)cc3Cl)c2c(C#N)c1C`, the TGI in test [1] is over 100 µM; in [2], over 100 µM; in test [3], over 100 µM; in test [4] it was 92.6 µM; in test [6], over 100 µM; in test [7], over 100 µM. Besides, the TGI in [8], in test [9] and in [10] was over 100 µM in each case.

Values taken from PubChem BioAssay (NCI).
